In ChEMBL document CHEMBL1201862, “PubChem BioAssay data set” (2004):
Activity calls are given as the source filed them. Cut-off read from the data, not from the text of the source, for most assays here: actives have a measured EC50 and inactives only a lower limit.

What was measured:
[1] = system: Streptococcus; test: Group A Streptococcus viability loss, dose response, counter-screen for streptokinase expression inhibitor project, luminescence, BacTiterGlo (AID 1915); format: functional, organism-based;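 note: potency for reduction of bacterial viability or growth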
[2] = system: Streptococcus sp. 'group A'; test: growth inhibition of control SK(-) GAS strain, dose response, counter-screen for streptokinase expression inhibitor project, luminescence, kanamycin, BacTiterGlo, confirmation (AID 1900); format: functional, organism-based
[3] = target: T1, Heat shock factor protein 1 (Mus musculus, UniProt P38532); test: inhibition of MG132-induced HSE-luciferase signal, confirmation, cell-based, NIH3T3, luminescence, dose retest (AID 2382); format: functional;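 note: NIH3T3 fibroblasts with HSF1-driven luciferase reporter stressed by proteasome inhibitor MG132; luminescence from HSF1-driven luciferase expression after 8 hours of MG132 stress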
T1 sequence (P38532 whole entry): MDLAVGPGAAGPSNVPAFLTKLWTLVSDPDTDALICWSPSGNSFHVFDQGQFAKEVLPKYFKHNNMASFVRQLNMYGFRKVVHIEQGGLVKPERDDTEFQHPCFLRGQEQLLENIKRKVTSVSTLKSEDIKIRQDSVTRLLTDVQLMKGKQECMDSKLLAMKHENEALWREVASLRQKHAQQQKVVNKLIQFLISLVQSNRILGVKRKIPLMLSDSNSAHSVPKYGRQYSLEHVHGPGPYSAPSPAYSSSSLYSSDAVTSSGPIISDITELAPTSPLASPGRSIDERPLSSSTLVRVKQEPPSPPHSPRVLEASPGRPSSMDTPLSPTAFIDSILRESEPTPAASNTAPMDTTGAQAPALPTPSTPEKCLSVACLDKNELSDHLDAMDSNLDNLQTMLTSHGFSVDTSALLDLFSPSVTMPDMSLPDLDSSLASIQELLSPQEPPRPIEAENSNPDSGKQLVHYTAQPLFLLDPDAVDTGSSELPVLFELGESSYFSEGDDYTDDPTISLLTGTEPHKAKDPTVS

[4] = target: T2, Streptokinase A (Streptococcus pyogenes serotype M1, UniProt P10520); test: S. pyogenes streptokinase expression inhibitors, potency, dose response, plasminogen activation absorbance, OD405 (AID 1914); format: functional, Streptococcus pyogenes M1 GAS;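 note: secreted streptokinase activity via plasminogen activation per viability signal from cell pellet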
T2 sequence (P10520 whole entry): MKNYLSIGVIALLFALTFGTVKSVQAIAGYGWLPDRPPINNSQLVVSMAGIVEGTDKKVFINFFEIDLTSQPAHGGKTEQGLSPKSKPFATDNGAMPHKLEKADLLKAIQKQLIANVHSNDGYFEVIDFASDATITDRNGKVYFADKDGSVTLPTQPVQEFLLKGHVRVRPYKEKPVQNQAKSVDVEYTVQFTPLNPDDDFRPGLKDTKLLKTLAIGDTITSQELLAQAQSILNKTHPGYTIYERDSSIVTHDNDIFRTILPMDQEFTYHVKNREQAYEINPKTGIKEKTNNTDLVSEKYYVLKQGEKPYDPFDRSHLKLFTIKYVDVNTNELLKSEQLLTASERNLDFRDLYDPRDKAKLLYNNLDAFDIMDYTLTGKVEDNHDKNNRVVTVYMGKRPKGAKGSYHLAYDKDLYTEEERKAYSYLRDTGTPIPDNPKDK

[5] = Luminescence Cell-Based Dose Response HTS to Identify Inhibitors of 5'UTR Stem-Loop Driven Prion Protein mRNA Translation in H4 Neuroglioblastoma Cells. [Related pubchem assays: 1827 (Project Summary), 1813 (Primary HTS)]; format: functional
[6] = inhibitors of SNCA 5'UTR-driven reporter translation, confirmation, H4 neuroglioma cells, luminescence (AID 1988); format: functional, cell-based
[7] = inhibitors of firefly luciferase expression or activity, dose response, H4 neuroglioma cells, luminescence (AID 1990); format: functional, cell-based
[8] = cytotoxicity toward NIH3T3 fibroblasts, dose response, counter-screen, cell-based, ATP luminescence, mouse fibroblasts (AID 2010); format: functional;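 note: cells exposed to compound for about 90 hours before reading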
[9] = inhibitors of intracellular T. cruzi replication, confirmation, NIH3T3 host cells, beta-gal luminescence (AID 2044); format: functional, cell-based;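 note: intracellular parasites grown in NIH/3T3 mouse fibroblasts as host cells; luminescent beta-galactosidase reporter signal from transgenic T. cruzi replicating inside host cells; inhibitors lower the luminescence signal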
[10] = cells; format: functional, cell-based
[11] = cells; format: functional, cell-based; remark: listed apart in the source
[12] = P. falciparum Dd2 growth inhibitors, dose response, SYBR Green, cherry-picked samples (AID 1159567); format: functional, cell-based
[13] = system: INS1; test: beta cell apoptosis inhibitors, cytokine rescue, dose response, luminescence, retest (AID 449756); format: functional, cell-based; conditions: Rattus norvegicus;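 note: cell death triggered by IL-1 beta plus TNF-alpha plus IFN-gamma mixture; protective hits raise ATP signal compared with cytokine alone wells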

SMILES: CC/N=C1\S/C(=C\c2ccc(-c3cccc(C(=O)O)c3)o2)C(=O)N1CC
- EC50 [1]: 10.7 µM (active)
- EC50 [2]: 3.4 µM (active)
- EC50 [3]: > 195 µM (not active)
- EC50 [4]: > 150 µM (not active)

SMILES: O=C1CCCc2c1[nH]c1ccc(Br)cc21
- EC50 [5]: 86.4 µM (active)
- EC50 [6]: 9.02 µM (active)
- EC50 [7]: < 0.1 µM (active)

SMILES: COc1ccccc1N1CCN(Cc2c[nH]c3ccccc23)CC1
- EC50 [5]: 25.3 µM (active)
- EC50 [6]: > 120 µM (not active)
- EC50 [8]: > 60 µM (not active)
- EC50 [7]: > 120 µM (not active)
- EC50 [9]: 2.1 µM (active)

SMILES: COc1ccc(F)cc1CSc1nnnn1-c1ccc(O)cc1
- EC50 [10]: > 350 µM (not active)
- EC50 [11]: > 350 µM (not active)

SMILES: C[C@@H]1CN([C@@H](C)CO)C(=O)c2cccc(NC(=O)c3cnccn3)c2O[C@@H]1CN(C)Cc1ccc(C(F)(F)F)cc1
- AC50 [12]: 9.12 µM (active)

SMILES: CCC(CO)Nc1ncnc2c1cnn2-c1ccc(OC)cc1 (centres undefined)
- EC50 [1]: > 150 µM (not active)
- EC50 [2]: > 150 µM (not active)
- EC50 [4]: > 150 µM (not active)

SMILES: COc1ccc(C(=O)Nc2ccc(C(=O)NCCc3ccc(OC)c(OC)c3)cc2)cc1
- EC50 [10]: > 350 µM (not active)
- EC50 [11]: > 350 µM (not active)

SMILES: Cc1nc2c(C(=O)Nc3ccc(N4CCCC(O)C4)cc3)snc2c(=O)[nH]1 (centres undefined)
- EC50 [4]: > 150 µM (not active)

SMILES: Cc1ccc(C[n+]2cccc(-c3ccccc3)c2)c(C)c1
- AC50 [13]: 4.24 µM (active)
- EC50 [8]: 11.9 µM (active)
- EC50 [9]: 0.552 µM (active)

SMILES: Cc1nn(Cc2ccc(Cl)cc2Cl)c(C)c1NC(=O)NC12CC3CC(CC(C3)C1)C2
- EC50 [1]: 33.4 µM (active)
- EC50 [2]: 7.54 µM (active)
- EC50 [4]: 32.7 µM (active)

SMILES: OCc1cccc[n+]1CCc1ccccc1
- EC50 [5]: 48.4 µM (active)
- EC50 [6]: > 120 µM (not active)
- EC50 [7]: > 120 µM (not active)

SMILES: CO[C@@H]1CN(C)C(=O)c2ccc(NC(=O)c3cc(C)on3)cc2OC[C@@H](C)N(S(=O)(=O)c2cccc(C)c2)C[C@H]1C
- AC50 [12]: 4.07 µM (active)

SMILES: CC(C)(C)NC(=O)N1c2ccccc2Sc2ccccc21
- EC50 [5]: > 120 µM (not active)
- EC50 [6]: 112 µM (active)
- EC50 [7]: 15.3 µM (active)

SMILES: NC(=O)c1ccc(NC(=O)COC(=O)C2(c3ccccc3F)CCCC2)cc1
- EC50 [5]: > 120 µM (not active)
- EC50 [6]: 17.5 µM (active)
- EC50 [7]: > 120 µM (not active)

SMILES: COC(=O)[C@H](CC(C)C)N(Cc1ccccc1)S(=O)(=O)N(Cc1ccccc1)[C@@H](CC(C)C)C(=O)OC
- AC50 [13]: 13.7 µM (active)

SMILES: CCC(=O)N1CC2(C1)CN(S(=O)(=O)c1ccccc1)[C@@H](CO)c1[nH]c3cc(OC)ccc3c12
- AC50 [12]: 5.43 µM (active)
